Measurements as given in patent EP2581085A1, “Pharmaceutical composition for nasal administration of metopimazine” (priority 2011, dated 2013).
Read-outs that look alike come from different tables or passages of the source. Values belong to the compound of their own block, whether it stands above or below them.

Experiments:
[1] = Pharmacokinetic study in rabbit after nasal or IV administration (plasma MPZ and AMPZ by HPLC with fluorescence detection); format: in vivo, lapin
Description: Le passage par voie nasale de la métopimazine a été caractérisé chez l'animal dans un modèle de référence qu'est le lapin. Les lapins utilisés étaient des femelles de race néozélandaises provenant de chez Charles River (poids 3,5 kg). La formulation testée chez le lapin a été la suivante: • Formule 1 : • Métopimazine : 10mg • NaCl : QSP 300mOsm • Tampon Citrate : QSP pH 5.5 • Eau : QSP 1ml
La posologie administrée au lapin a été calculée à partir de la dose pédiatrique soit 1 mg / kg / jour en 3 prises. Le poids des lapins étant de 3,5 kg, la dose par prise est d'environ 1 mg. La dose est donc administrée par instillation de 50 µl dans chaque narine d'une solution à 10 mg/ml.
Avant toute manipulation, le lapin est placé dans des cages de contention. Un cathéter est introduit sur chaque oreille du lapin au niveau de la veine marginale et d'une artère. Le cathéter veineux a permis d'injecter le soluté de remplissage (sérum physiologique) et le cathéter artériel a servi aux différents prélèvements sanguins tout au long de la manipulation. Les prélèvements ont été réalisés à temps réguliers : 0, 5, 10, 20, 30, 60, 120, 240 et 480 minutes. La préparation est administrée aux lapins en position supinale. Les lapins sont être maintenus dans cette position au moins 5 minutes après administration pour assurer le contact entre l'épithélium et la formulation. La solution nasale est administrée par instillation d'un volume de 50µL avec une micropipette dans chaque narine du lapin. Le volume du prélèvement est d'environ 3 mL. Après 2 h, les lapins sont placés dans leur cage avec un libre accès à la nourriture et à l'eau dans l'attente des prélèvements suivants. Le dosage est réalisé par CLHP avec détection par fluorescence en utilisant la méthode décrite par Angelo et al. J of Chrom, 496; 472-477, (1989). L'appareil de dosage est constitué d'une pompe Jasco, d'un injecteur Kontron et d'un détecteur de fluorescence Varian Prostar.
L'étude pharmacocinétique a été conduite sur le logiciel PK Solutions 2.
La formule 1 a été comparée à la voie IV. La métopimazine a été administrée dans la veine marginale de l'oreille. Les concentrations plasmatiques de la MPZ et l'AMPZ sont représentées également dans la figure 2.
Selon le même protocole, une autre formulation a été testée. • Formule 2 : • Métopimazine : 10mg • DMβCD : 21mg • NaCl : QSP 300mOsm • Tampon Citrate : QSP pH 5.5 • Eau : QSP 1ml

[2] = Local tolerance study in rabbit, nasal administration for 7 days, histology of the anatomical piece; format: in vivo, lapin; parameters: key: Non renseigné : absent ou négligeable; +: faible intensité; ++: Intensité modérée; +++: Intensité marquée; details: 7 days of Formule 1 200µLx3/J
Description: La tolérance a été étudiée chez le lapin après administration de 2mg de Formule 1 X3/j pendant 7 jours. Chaque lapin était son propre contrôle, puisqu'une narine recevait le Vogalène pendant que la seconde recevait une solution de sérum physiologique. Après l'exposition, les lapins sont sacrifiés afin de récupérer et d'étudier la pièce anatomique.

[3] = hepatic first-pass effect, cited from earlier work
[4] = MPZ in plasma after IV administration of métopimazine, lapin, n=2
[5] = sampling 14h after last administration, one rabbit and one sample (A-D)
[6] = sampling 70h after last administration, each column = one rabbit and one sample (A-C)

t max ([1]; in vivo): 10 min
AUC ([1]; in vivo, iv): 5765 ng/mL/min
C max ([1]; in vivo, iv): 40 ng/mL
T1/2 ([1]; in vivo, iv): 105 min
t max ([1]; in vivo, iv): 20 min
Structure (SMILES): CS(=O)(=O)c1ccc2c(c1)N(CCCN1CCC(C(=O)O)CC1)c1ccccc1S2 [AMPZ, acide de métopimazine]

t max ([1]; MPZ in plasma after IV administration of métopimazine (veine marginale de l'oreille), lapin, n=2, read-out: t max (converted)): 5 min
Cmax [1, 4]: 17.4 ng/mL
half-life [1, 4]: 72 min
AUC ([1]; MPZ in plasma after IV administration of métopimazine, lapin, n=2, read-out: AUC (converted)): 23.4 ng·h/mL
t max ([1]; MPZ in plasma after nasal administration, 50 µl in each nostril of a 10 mg/ml solution (about 1 mg), lapin, n=2, read-out: t max (converted)): 5 min
Cmax ([1]; MPZ in plasma after nasal administration, about 1 mg, lapin, n=2): 9.2 ng/mL
bioavailability ([1]; plasma, 1 mg, lapin, nasal route compared with IV, b45 = formulation tested (Formule 1), b50 = Formule 2, read-out: biodisponibilité de la MPZ par voie nasale): ~50%
Structure (SMILES): CS(=O)(=O)c1ccc2c(c1)N(CCCN1CCC(C(N)=O)CC1)c1ccccc1S2 [MPZ, métopimazine]
Hyperplasie des cellules de réserve [2, 5]: +
Inflammation dans le chorion [2, 5]: +
Perte des cellules caliciformes [2, 5]: +
Hyperplasie des cellules de réserve [2, 6]: + and ++
Inflammation épithéliale [2, 6]: + and + avec eosinophiles et lymphocytes
Perte des cellules caliciformes [2, 6]: +++ and + and ++
Perte des cils [2, 6]: +++ and + and ++
biodisponibilité par voie orale ([3]; oral route): 22,3%
biodisponibilité par voie rectale ([3]; rectal route): 19,5%
